From ChEMBL document CHEMBL1944583, “Synthesis and evaluation of hexahydropyrrolo[3,4-d]isoxazole-4,6-diones as anti-stress agents” (Eur J Med Chem, 2012) come the findings set out here.

Each structure is given as a SMILES string. The source made the active and inactive calls. The calls are words filed in the database; no cut-off is given here.

The test system of series [1] is Mus musculus. The experiment in a line: Antistress activity in Swiss albino mouse assessed as reversal of immobilization stress-induced decrease in frequency of rearing at 2 mg/kg, ip administered 60 mins before stress induction measured after 10 mins by open field test. In kind it is functional, organism-based. Also noted: dose 2 mg/kg.
Series [2] concerns Mus musculus. As to the kind of experiment: Antistress activity in Swiss albino mouse assessed as reversal of immobilization stress-induced decrease in locomotor activity at 2 mg/kg, ip administered 60 mins before stress induction measured every 5 mins by actophotometer test. In kind it is functional, organism-based. Details: dose 2 mg/kg.
Series [3] deals with Mus musculus. The experiment in a line: Antistress activity in Swiss albino mouse assessed as reversal of immobilization stress-induced decrease in frequency of head dip at 2 mg/kg, ip administered 60 mins before stress induction measured after 10 mins by hole board test. Also noted: dose 2 mg/kg. In kind it is functional, organism-based.
Series [4] has as its system Mus musculus. The experiment in a line: Antistress activity in Swiss albino mouse assessed as reversal of immobilization stress-induced decrease in rearing at 2 mg/kg, ip administered 60 mins before stress induction measured after 10 mins by hole board test. In kind it is functional, organism-based. Also noted: dose 2 mg/kg.
Series [5] relates to Mus musculus. The experiment in a line: Antistress activity in Swiss albino mouse assessed as reversal of immobilization stress-induced decrease in number of line crossing at 2 mg/kg, ip administered 60 mins before stress induction measured after 10 mins by open field test. The format is functional, organism-based. Details: dose 2 mg/kg.
Series [6] has as its system Mus musculus. As to the kind of experiment: Antistress activity in Swiss albino mouse assessed as […] immobilization stress-induced decrease in non-social behavior at 2 mg/kg, ip administered 60 mins before stress induction measured after 10 mins by open field test. The format is functional, organism-based. Details: dose 2 mg/kg.
The test system of series [7] is Mus musculus. The experiment in a line: Antistress activity in Swiss albino mouse assessed as reversal of immobilization stress-induced decrease in frequency of rearing at 5 mg/kg, ip administered 60 mins before stress induction measured after 10 mins by open field test. In kind it is functional, organism-based. Details: dose 5 mg/kg.
In series [8] the test system is Mus musculus. The experiment in a line: Antistress activity in Swiss albino mouse assessed as reversal of immobilization stress-induced decrease in frequency of head dip at 5 mg/kg, ip administered 60 mins before stress induction measured after 10 mins by hole board test. In kind it is functional, organism-based. Also noted: dose 5 mg/kg.
Series [9] relates to Mus musculus. As to the kind of experiment: Antistress activity in Swiss albino mouse assessed as reversal of immobilization stress-induced decrease in locomotor activity at 5 mg/kg, ip administered 60 mins before stress induction measured every 5 mins by actophotometer test. In kind it is functional, organism-based. Also noted: dose 5 mg/kg.
Series [10] has as its system Mus musculus. As to the kind of experiment: Toxicity in Swiss albino mouse assessed as increase in frequency of head dips at 10 mg/kg, ip. The format is organism-based. Also noted: dose 10 mg/kg, route intraperitoneal. To be noted: in vivo.
The test system of series [11] is Mus musculus. The experiment in a line: Antistress activity in Swiss albino mouse assessed as reversal of immobilization stress-induced decrease in locomotor activity at 10 mg/kg, ip administered 60 mins before stress induction measured every 5 mins by actophotometer test. Details: dose 10 mg/kg. The format is functional, organism-based.
A short description of series [12]: Half life in Swiss albino mouse. In kind it is ADME, organism-based. To be noted: in vivo.
The test system of series [13] is Mus musculus. The experiment in a line: Antistress activity in Swiss albino mouse assessed as reversal of immobilization stress-induced decrease in number of line crossing at 5 mg/kg, ip administered 60 mins before stress induction measured after 10 mins by open field test. In kind it is functional, organism-based. Details: dose 5 mg/kg.
The test system of series [14] is Mus musculus. As to the kind of experiment: Antistress activity in Swiss albino mouse assessed as reversal of immobilization stress-induced decrease in rearing at 10 mg/kg, ip administered 60 mins before stress induction measured after 10 mins by hole board test. In kind it is functional, organism-based. Details: dose 10 mg/kg.
For series [15], the system named is Mus musculus. As to the kind of experiment: Antistress activity in Swiss albino mouse assessed as reversal of immobilization stress-induced decrease in frequency of head dip at 10 mg/kg, ip administered 60 mins before stress induction measured after 10 mins by hole board test. In kind it is functional, organism-based. Details: dose 10 mg/kg.
Series [16] relates to Mus musculus. As to the kind of experiment: Antistress activity in Swiss albino mouse assessed as reversal of immobilization stress-induced decrease in number of line crossing at 10 mg/kg, ip administered 60 mins before stress induction measured after 10 mins by open field test. In kind it is functional, organism-based. Also noted: dose 10 mg/kg.
Series [17] has as its system Mus musculus. The experiment in a line: Antistress activity in Swiss albino mouse assessed as reversal of immobilization stress-induced decrease in non-social behavior at 10 mg/kg, ip administered 60 mins before stress induction measured after 10 mins by open field test. Also noted: dose 10 mg/kg. In kind it is functional, organism-based.
Series [18] deals with Mus musculus. As to the kind of experiment: Antistress activity in Swiss albino mouse assessed as reversal of immobilization stress-induced decrease in rearing at 5 mg/kg, ip administered 60 mins before stress induction measured after 10 mins by hole board test. The format is functional, organism-based. Also noted: dose 5 mg/kg.
Series [19] concerns Mus musculus. As to the kind of experiment: Antistress activity in Swiss albino mouse assessed as reversal of immobilization stress-induced decrease in non-social behavior at 5 mg/kg, ip administered 60 mins before stress induction measured after 10 mins by open field test. Also noted: dose 5 mg/kg. In kind it is functional, organism-based.
Series [20] concerns Mus musculus. As to the kind of experiment: Toxicity in Swiss albino mouse assessed as increase in frequency of rearing at 10 mg/kg, ip. Conditions: in vivo. Details: dose 10 mg/kg, route intraperitoneal. The format is organism-based.
Series [21] has as its system Mus musculus. The experiment in a line: Antistress activity in Swiss albino mouse assessed as reversal of immobilization stress-induced decrease in frequency of rearing at 10 mg/kg, ip administered 60 mins before stress induction measured after 10 mins by open field test. The format is functional, organism-based. Also noted: dose 10 mg/kg.

Consider `CN1C(=O)CN=C(c2ccccc2)c2cc(Cl)ccc21`, for which the result in the series with Mus musculus [1], with Mus musculus [2], with Mus musculus [3], with Mus musculus [4], in the series on Mus musculus [5] and in the series with Mus musculus [6] was Active.
Consider `O=C1[C@H]2[C@@H](c3ccccc3)N(c3ccccc3)O[C@H]2C(=O)N1c1cccc2ccccc12` (relative stereo), for which the result in the series on Mus musculus [7], in the series with Mus musculus [8], in the series with Mus musculus [9], with Mus musculus [11], in the series with Mus musculus [13] and in the series with Mus musculus [14] was Active. Also, the outcome in the series on Mus musculus [15], in the series on Mus musculus [16], in the series with Mus musculus [17], with Mus musculus [18], with Mus musculus [19] and in the series on Mus musculus [21] was Active. For the same molecule, the Activity result in the series on Mus musculus [10] and in the series with Mus musculus [20] was “Non-toxic” in each case. The half-life in series [12] was 3 h. In addition, the result in the series with Mus musculus [3] and in the series on Mus musculus [4] was inactive.
Take `O=C1[C@@H]2[C@@H](ON(c3ccccc3)[C@H]2c2ccccc2)C(=O)N1c1cccc2ccccc12` (relative stereo): the outcome in the series on Mus musculus [7], in the series with Mus musculus [1], with Mus musculus [9], in the series with Mus musculus [2], in the series on Mus musculus [13] and with Mus musculus [5] was inactive. For the same molecule, the outcome in the series on Mus musculus [6] and in the series with Mus musculus [19] was inactive. Besides, the Activity entry in the series with Mus musculus [10] and in the series with Mus musculus [20] was “Non-toxic” in each case. Also, the result in the series on Mus musculus [11], in the series on Mus musculus [16], in the series on Mus musculus [17] and in the series with Mus musculus [21] was Active.
